Measurements reported in patent publication US20210284691A1, “CBX8 CHROMDOMAIN INHIBITORS AND THE USES THEREOF” (Purdue Research Foundation, priority 2019, published 2021).
Values belong to the molecule of their own block, whether it stands above or below them. Square brackets hold non-standard residues; d marks the D form. Primed or numbered codes have the meaning given here. Ends that are not written are not given here. Peptide text beside a SMILES is read from it. * marks the point of attachment. Isoxazole3carbonyl(5-Me) = Cc1cc(C(=O)*)no1; Tyr(3-Cl) = N[C@@H](Cc1ccc(O)c(Cl)c1)C(=O)O; Lys(Et2) = CCN(CC)CCCC[C@H](N)C(=O)O; PEG4′ = not defined here; NH(propargyl) = C#CCN*

Legend:
CBX8 ChD = molecular target: T1, CBX8 ChD (Homo sapiens, UniProt Q9HC52); experiment: Direct fluorescence polarization (FP) binding assay; settings: from Kd values
T1 construct: CBX chromodomain constructs; host or cells: E. coli BL21 CodonPlus RIL
T1 sequence (Q9HC52 11-69 limits assumed): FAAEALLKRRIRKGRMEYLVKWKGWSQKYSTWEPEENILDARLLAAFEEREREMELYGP
Procedure: Bacterial growth was completed at 37° C. in LB media to OD600=2.0, followed by reducing the temperature to 16° C. over 30-60 min and induced with 1 mM IPTG for 16 h. Cells were collected by centrifugation at 6000 rpm for 20 min and resuspended in ChD binding buffer (20 mM Tris, pH 8, 150 mM NaCl, 0.01% Tween-20, 20 mM imidazole) with 1.0 mM PMSF. Bacteria pellets were stored at −80° C. until needed. Pellets were thawed on ice for 10 min in ChD binding buffer, and shaked at 4° C. supplemented with 100 μg/mL lysozyme, 1 mg/mL CHAPS and 1 mM PMSF, for 30 min. Cells were subsequently lysed by sonication (15 W, 30 s on, followed by 30 s off, twice, followed by 20 W for 1 min). The solubilized fraction was collected by centrifugation at 15000 rpm for 40 min at 4° C. Meanwhile, Ni-NTA Agarose resin (QIAGEN, Venlo, Netherlands) was washed with H2O and equilibrated with ChD binding buffer. The soluble fraction was incubated with the prewashed Ni-NTA agarose resin at 4° C. for 2 h. The resin was then washed 3× with ChD purification buffer (20 mM Tris, pH 8, 150 mM NaCl, 0.01% Tween-20, 1 mM PMSF). Proteins were eluted by the addition of 0.5 M imidazole to ChD purification buffer. The elution was diluted with 30% glycerol, flash frozen, and stored at −80° C. until needed. Protein purity was assessed by SDS-PAGE and concentration was determined by the Pierce 660 kit (Thermo Scientific).
Direct fluorescence polarization (FP) binding assay of PSL hits against PcG CBX ChDs. FP assays were conducted as above with slight modifications. Alkyne peptides described above were conjugated with a fluorescein group(5-/6-FAM) through copper catalyzed click reaction as previously described. The FAM-labeled peptide was kept constant at 100 nM. The CBX ChD proteins were titrated by 2-fold series dilutions in the assays. The highest protein concentrations, at which FAM-peptide was completely bound, used for each CBX in the direct binding assays depends on the binding affinity of the peptides. Assays were performed for each peptide in four replicates.

[1] = molecular target: T2, CBX8 binding to chromatin (Homo sapiens, UniProt Q9HC52); experiment: ChIP-qPCR in Hs68 fibroblast cells; type: cell-based; settings: 120 μM
T2 construct: endogenous in cells; host or cells: Hs68 fibroblasts (A16); HEK293T (A19); K562 (A23)
T2 sequence (Q9HC52 1-389): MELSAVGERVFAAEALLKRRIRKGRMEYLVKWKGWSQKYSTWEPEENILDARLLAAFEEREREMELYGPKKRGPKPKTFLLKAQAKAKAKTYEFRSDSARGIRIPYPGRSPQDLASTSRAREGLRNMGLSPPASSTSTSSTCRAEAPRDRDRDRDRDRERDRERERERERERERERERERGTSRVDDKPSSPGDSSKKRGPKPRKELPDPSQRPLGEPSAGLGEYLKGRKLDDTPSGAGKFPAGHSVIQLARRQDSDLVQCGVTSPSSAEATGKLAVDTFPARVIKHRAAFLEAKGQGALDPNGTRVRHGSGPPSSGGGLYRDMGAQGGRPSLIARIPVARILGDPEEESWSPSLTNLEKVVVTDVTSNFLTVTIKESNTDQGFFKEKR
Procedure: ChIP: Hs68 cells were seeded at 4×10^6 in a 10 cm cell culture plates 16 hours prior to treatment. […] ChIP was performed as described in Connelly et al., 2018. Birefly, cells were washed with PBS and fixed on the plate with CiA Fix buffer (50 mM HEPES, pH 8.0, 1 mM EDTA, 0.5 mM ETGA, 100 mM NaCl) and 1% formaldehyde for 10 min at room temperature. Crosslinking was quenched with 0.125 M glycine for 5 min at 4° C. Cells were washed once with PBS and lifted off the plate then resuspended in CiA NP Rinse buffer 1 (50 mM HEPES pH 8.0, 140 mM NaCl, 1 mM EDTA, 10% glycerol, 0.5% NP-40, 0.25% Triton X) for 10 min. Cells were pelleted at 1200×g for 5 min at 4° C. The supernatant was removed, and the cells were resuspended in CiA NP rinse buffer 2 (10 mM Tris pH 8.0, 1 mM EDTA, 0.5 mM EGTA, 200 mM NaCl). Cells were collected by centrifugation, 1200×g for 5 min. Supernatant was removed and the cells were washed twice with shearing buffer (0.1% SDS, 1 mM EDTA, 10 mM Tris HCl, pH 8.0). Cells were resuspended in shearing buffer and sonicated for 7 min with the probe (Branson). Lysate was centrifuged at 21,000×g for 15 min to remove debris. Supernatant was collected and pre-cleared overnight with Protein A/G magnetic beads (Pierce). […]
qPCR: qPCR was performed on the isolated ChIP DNA using SYBR master mix (Thermo) and run on the BioRad CFX thermo cycler. […] Enrichment was determined by percent input. […]

CBX8 regulated gene = experiment: Gene expression of a CBX8 regulated gene in HEK293T cells; type: cell-based, Human; settings: high compound concentrations
THP1 cells = settings: 50 μM
LNCaP_NED cells = experiment: LNCaP_NED cell proliferation, viability and morphology; type: cell-based; settings: enzalutamide treatment
Excerpt: FIG. 12A). Neuroendocrine differentiation (NED) of prostate cancer induced by androgen deprivation. Representative pictures of LNCaP cells treated with normal media or charcoal-stripped serum (CSS) media for 6 days to induce neuroendocrine differentiation (LNCaP_NED). FIG. 12B). Transcriptional fold changes of KLK3/TMPRSS2/ENO2/CHGA were quantified normalized to control gene YWHAZ upon CSS media treatment for 6 or 9 days. FIG. 12C). Western blotting of CBX paralogs in LNCaP and LNCaP_NED cells generated from 14-day CSS treatment. FIG. 12D). Cell proliferation of LNCaP_NED following 5 days incubation with 2 or 10 μM SW2_152F. DMSO was used as negative control. FIG. 12E). LNCaP_NED cells were treated with 10 μM SW2_152F for 24 h-96 h. Cell morphology pictures were captured starting from 24 h. Average cell size were plotted at 24 h or 48 h for both DMSO group and compound treated group. FIG. 12F). LNCaP_NED cells were treated with 10 μM or 50 μM SW2_152F for 48 hours. Transcriptional fold change of genes (KLK3/TMPRSS2/AR/CBX2) were normalized to YWHAZ in LNCaP_NED cells with SW2_152F treatment or DMSO. FIG. 12G). LNCaP cells were treated with DMSO. LNCaP_NED cells were treated with DMSO, 10 μM GSK343 or 10 μM SW2_152F for 48 hours. Whole cell lysates were extracted for western blotting. FIG. 12H). LNCaP_NED cells were treated with DMSO or 10 μM SW2_152F for 4 hours before harvest. Binding of H3K27me3 and CBX2 at specific genomic sites (KLK3/TMPRSS2, e: enhancer, p: promoter) were evaluated using chromatin immunoprecipitation-qPCR. For all experiments in the figure, error bars represent SEM n=3 biological replicates, p-values were calculated using two-tailed Student's t-test, *=p<0.05, **=p<0.01, ***=p<0.001, ****=p<0.0001.
Cellular Activity of CBX2 Inhibitor in Neuroendocrine Differentiation of Prostate Cancer—Generation of a Prostate Cancer Neuroendocrine Differentiation (NED) System. To generate an in vitro model for NED, we cultured the androgen-sensitive prostate cancer cell line LNCaP in charcoal-stripped serum (CSS), which lacks androgens as well as other steroids. Upon treatment with CSS media, LNCaP cells adopted morphological characteristics of neuroendocrine-like cells (LNCaP_NED), which include dominant nucleus, limited cytoplasm, dendrites (FIG. 12A) and a decreased proliferation rate. To monitor transcriptional changes during androgen deprivation, we quantified the changes in expression of two NED markers (ENO2 and CHGA) and two AR target genes (KLK3 and TMPRSS2) by RT-qPCR during 15 days of androgen deprivation. […] To verify that LNCaP_NED cells become resistant to AR antagonists, we tested the effects of the AR antagonist enzalutamide (ENZA) on cell proliferation.

LNCaP cells = experiment: LNCaP cell proliferation; type: cell-based; settings: ENZA treatment
endogenous CBX proteins = experiment: Peptide pull-down / chemoprecipitation from HEK293T lysates; type: binding, Human
Procedure: 2×10^7 HEK293T cells were seeded in a 15 cm cell culture dish overnight. Next day, media was removed and cells were washed with PBS. Cells were lysed with 5 ml Buffer A (25 mM HEPES, 5 mM KCl, 25 mM MgCl2, 0.05 mM EDTA, 10% glycerol, 0.1% NP-40, plus protease inhibitors) on ice for 15 minutes. The nuclei were pelleted and re-suspended in IP buffer (25 mM Tris, 300 mM NaCl, 1 mM EDTA, 1% NP-40, plus protease inhibitors) for 15 minutes. The sample were spun down at 15,000 rpm at 4° C. for 5 min and lysates were transferred to separate tubes. Protein concentrations were determined by Pierce 660 nm kit (Thermo Scientific). Streptavidin M-270 Dynabeads (Solulink, San Diego, Calif.) was washed three times with Pulldown Binding Buffer (50 mM Tris, 150 mM NaCl, 0.5 mM DTT). 10× of biotinylated peptides SW2_110A-B, as well as biotinylated H3K27me3 (21-44) and biotinylated H3 (21-44), were incubated with […] pre-equilibriumed beads at 4° C. for an hour. After biotin-peptide being immobilized on resin, extra unbound peptides were removed by 3× washing, and 200 μg of nuclear lysate supernatant was added to each washed and immobilized biotinylated peptide (biotin-H3, biotin-H3K27me3, SW2_110A-B). The mixture was rotated at 4° C. for 2 hours. Then, the depleted lysate was removed and the beads were washed with Pulldown Binding Buffer 3× at 4° C. […] ImageJ was employed to quantitate the protein bands.

selectivity for CBX8 ChD over CBX7 ChD (CBX8 ChD): 20 fold | CBX8 binding at a known target, ChIP-qPCR [1]: completely unaffected
Molecule: C#CCNC(=O)[C@H](CO)NC(=O)[C@H](CCCCN(CC)CC)NC(=O)[C@@H](NC(=O)[C@@H](NC(=O)[C@H](Cc1ccc(O)c(Cl)c1)NC(=O)c1cc(C)on1)C(C)C)[C@@H](C)CC [KED97L] ({Isoxazole3carbonyl(5-Me)}-[Tyr(3-Cl)]VI[Lys(Et2)]S-{NH(propargyl)}; C-terminus assumed)
gene expression changes of a CBX8 regulated gene (CBX8 regulated gene): only slightly affected | THP1 cell viability (THP1 cells): only slightly affected

Molecule: CNC(=O)c1ccc(N2C(=S)N(c3ccc(C#N)c(C(F)(F)F)c3)C(=O)C2(C)C)cc1F [enzalutamide, reference compound]
LNCaP_NED proliferation with AR antagonist (LNCaP_NED cells): no further decrease in proliferation | LNCaP proliferation with AR antagonist (LNCaP cells): highly decreased proliferation

Molecule: SW2_152F-B: biotinylated SW2_152F (SEQ ID NO: 29) (PIKS-{PEG4′-biotin}; also: Pro1 alpha-amino modified, Lys3 side chain amino modified)
enrichment of endogenous CBX proteins by biotinylated ligand, immunoblot (endogenous CBX proteins): robustly enriched CBX2 and CBX8 with limited enrichment of other paralogs
